Values joined by “and” are separate entries in the source; they are usually repeats but may differ in a detail not shown here. Identical values can stand only once. Toxic doses and inconclusive results are not listed. The calls were made as follows: active = survival T/C of 150% or more; inactive = T/C below 125% in these data.
Test system: CD2F1 mice, L1210 leukemia ip, survival T/C
Experiment: NCI In Vivo Anticancer Drug Screen. Data for tumor model L1210 Leukemia (intraperitoneal) in CD2F1 (CDF1) mice
Conditions: higher = longer survival
How it was run: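 Transplantable tumor in mice; compound-treated vs vehicle-treated groups. Read-out = treated/control ratio of the measured endpoint.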

Measured: T/C

COc1cccc2c1C(=O)c1c(O)c3c(c(O)c1C2=O)C[C@@](O)(C(=O)CO)C[C@@H]3OC1CC(N)C(O)C(C)O1 (some centres not stated)
121 % of control and 263 % of control: endpoint: mean survival time, dose: 20.0 mg/kg/injection, schedule: Q01DX001 (ip), vehicle: water
active: endpoint: mean survival time, dose: 0.72 mg/kg/injection, schedule: Q01DX009 (ip), vehicle: saline 173 % of control | endpoint: mean survival time, dose: 1.0 mg/kg/injection, schedule: Q01DX005 (ip), vehicle: water 174 % of control | endpoint: mean survival time, dose: 1.2 mg/kg/injection, schedule: Q01DX009 (ip), vehicle: saline 204 % of control | endpoint: mean survival time, dose: 1.68 mg/kg/injection, schedule: Q01DX001 (ip), vehicle: water 159 % of control | endpoint: mean survival time, dose: 1.68 mg/kg/injection, schedule: Q01DX009 (ip), vehicle: water 160 % of control | endpoint: mean survival time, dose: 2.5 mg/kg/injection, schedule: Q04DX003 (ip), vehicle: water 187 % of control | endpoint: mean survival time, dose: 2.8 mg/kg/injection, schedule: Q01DX001 (ip), vehicle: water 155 % of control | endpoint: mean survival time, dose: 2.8 mg/kg/injection, schedule: Q01DX009 (ip), vehicle: water 153 % of control | endpoint: mean survival time, dose: 4.0 mg/kg/injection, schedule: Q01DX001 (ip), vehicle: saline 193 % of control | endpoint: mean survival time, dose: 4.67 mg/kg/injection, schedule: Q01DX001 (ip), vehicle: water 166 % of control | endpoint: mean survival time, dose: 5.0 mg/kg/injection, schedule: Q01DX001 (ip), vehicle: saline 150 % of control and 171 % of control | endpoint: mean survival time, dose: 5.0 mg/kg/injection, schedule: Q01DX001 (ip), vehicle: water 151 % of control and 178 % of control | endpoint: mean survival time, dose: 5.0 mg/kg/injection, schedule: Q04DX003 (ip), vehicle: water 166 % of control | endpoint: mean survival time, dose: 5.4 mg/kg/injection, schedule: Q01DX001 (ip), vehicle: saline 151 % of control and 260 % of control | endpoint: mean survival time, dose: 6.6 mg/kg/injection, schedule: Q01DX001 (ip), vehicle: saline 193 % of control | endpoint: mean survival time, dose: 7.78 mg/kg/injection, schedule: Q01DX001 (ip), vehicle: water 153 % of control | endpoint: mean survival time, dose: 8.0 mg/kg/injection, schedule: Q01DX001 (ip), vehicle: saline 208 % of control | endpoint: mean survival time, dose: 8.0 mg/kg/injection, schedule: Q04DX003 (ip), vehicle: saline 163 % of control | endpoint: mean survival time, dose: 10.0 mg/kg/injection, schedule: Q01DX001 (ip), vehicle: water 169 % of control and 176 % of control | endpoint: mean survival time, dose: 12.96 mg/kg/injection, schedule: Q01DX001 (ip), vehicle: water 161 % of control | endpoint: mean survival time, dose: 15.0 mg/kg/injection, schedule: Q01DX001 (ip), vehicle: saline 196 % of control and 201 % of control | endpoint: mean survival time, dose: 20.0 mg/kg/injection, schedule: Q01DX001 (ip), vehicle: saline 225 % of control | endpoint: median survival time, dose: 0.5 mg/kg/injection, schedule: Q01DX009 (ip), vehicle: saline 170 % of control | endpoint: median survival time, dose: 1.0 mg/kg/injection, schedule: Q01DX005 (ip), vehicle: water 150 % of control | endpoint: median survival time, dose: 2.0 mg/kg/injection, schedule: Q01DX005 (ip), vehicle: water 162 % of control | endpoint: median survival time, dose: 2.0 mg/kg/injection, schedule: Q04DX003 (ip), vehicle: water 163 % of control | endpoint: median survival time, dose: 3.6 mg/kg/injection, schedule: Q01DX001 (ip), vehicle: saline 151 % of control | endpoint: median survival time, dose: 4.0 mg/kg/injection, schedule: Q04DX003 (ip), vehicle: saline 157 % of control | endpoint: median survival time, dose: 4.0 mg/kg/injection, schedule: Q04DX003 (ip), vehicle: water 339 % of control | endpoint: median survival time, dose: 5.0 mg/kg/injection, schedule: Q01DX001 (ip), vehicle: saline 150 % of control and 155 % of control | endpoint: median survival time, dose: 6.0 mg/kg/injection, schedule: Q01DX001 (ip), vehicle: saline 152 % of control | endpoint: median survival time, dose: 8.0 mg/kg/injection, schedule: Q04DX003 (ip), vehicle: saline 154 % of control | endpoint: median survival time, dose: 8.0 mg/kg/injection, schedule: Q04DX003 (ip), vehicle: water 182 % of control and 339 % of control | endpoint: median survival time, dose: 16.0 mg/kg/injection, schedule: Q01DX001 (iv), vehicle: water 193 % of control
113 % of control and 216 % of control: endpoint: median survival time, dose: 9.6 mg/kg/injection, schedule: Q01DX001 (ip), vehicle: saline
inactive: endpoint: mean survival time, dose: 0.06 mg/kg/injection, schedule: Q01DX009 (ip), vehicle: saline 105 % of control | endpoint: mean survival time, dose: 0.12 mg/kg/injection, schedule: Q01DX009 (ip), vehicle: saline 114 % of control | endpoint: mean survival time, dose: 0.2 mg/kg/injection, schedule: Q01DX009 (ip), vehicle: water 113 % of control and 114 % of control | endpoint: mean survival time, dose: 0.25 mg/kg/injection, schedule: Q01DX005 (ip), vehicle: water 121 % of control | endpoint: mean survival time, dose: 0.38 mg/kg/injection, schedule: Q01DX009 (ip), vehicle: saline 121 % of control | endpoint: mean survival time, dose: 0.39 mg/kg/injection, schedule: Q01DX009 (ip), vehicle: water 117 % of control | endpoint: mean survival time, dose: 0.43 mg/kg/injection, schedule: Q01DX009 (ip), vehicle: saline 120 % of control | endpoint: mean survival time, dose: 0.62 mg/kg/injection, schedule: Q04DX003 (ip), vehicle: water 120 % of control | endpoint: mean survival time, dose: 0.63 mg/kg/injection, schedule: Q04DX003 (ip), vehicle: water 123 % of control | endpoint: mean survival time, dose: 1.0 mg/kg/injection, schedule: Q01DX001 (ip), vehicle: water 101 % of control | endpoint: mean survival time, dose: 1.08 mg/kg/injection, schedule: Q04DX003 (ip), vehicle: saline 124 % of control | endpoint: mean survival time, dose: 1.7 mg/kg/injection, schedule: Q01DX001 (ip), vehicle: water 99 % of control | endpoint: mean survival time, dose: 1.8 mg/kg/injection, schedule: Q04DX003 (ip), vehicle: saline 121 % of control | endpoint: mean survival time, dose: 2.0 mg/kg/injection, schedule: Q01DX001 (ip), vehicle: saline 102 % of control | endpoint: mean survival time, dose: 2.9 mg/kg/injection, schedule: Q01DX001 (ip), vehicle: water 98 % of control | endpoint: mean survival time, dose: 3.0 mg/kg/injection, schedule: Q01DX009 (ip), vehicle: saline 114 % of control and 101 % of control | endpoint: mean survival time, dose: 3.13 mg/kg/injection, schedule: Q01DX009 (ip), vehicle: water 101 % of control | endpoint: mean survival time, dose: 4.67 mg/kg/injection, schedule: Q01DX009 (ip), vehicle: water 100 % of control | endpoint: mean survival time, dose: 4.8 mg/kg/injection, schedule: Q01DX001 (ip), vehicle: water 102 % of control | endpoint: mean survival time, dose: 8.0 mg/kg/injection, schedule: Q01DX001 (ip), vehicle: water 98 % of control | endpoint: mean survival time, dose: 8.0 mg/kg/injection, schedule: Q04DX003 (ip), vehicle: water 116 % of control | endpoint: mean survival time, dose: 10.0 mg/kg/injection, schedule: Q04DX003 (ip), vehicle: water 89 % of control | endpoint: mean survival time, dose: 13.33 mg/kg/injection, schedule: Q01DX001 (ip), vehicle: water 104 % of control | endpoint: mean survival time, dose: 18.0 mg/kg/injection, schedule: Q01DX001 (ip), vehicle: saline 121 % of control | endpoint: mean survival time, dose: 22.23 mg/kg/injection, schedule: Q01DX001 (ip), vehicle: water 119 % of control | endpoint: mean survival time, dose: 40.0 mg/kg/injection, schedule: Q01DX001 (ip), vehicle: water 100 % of control | endpoint: mean survival time, dose: 20.0 micrograms/kg/injection, schedule: Q01DX005 (ip), vehicle: saline 100 % of control | endpoint: mean survival time, dose: 40.0 micrograms/kg/injection, schedule: Q01DX005 (ip), vehicle: saline 117 % of control | endpoint: median survival time, dose: 2.16 mg/kg/injection, schedule: Q04DX003 (ip), vehicle: saline 115 % of control | endpoint: median survival time, dose: 3.6 mg/kg/injection, schedule: Q04DX003 (ip), vehicle: saline 113 % of control | endpoint: median survival time, dose: 4.8 mg/kg/injection, schedule: Q01DX001 (ip), vehicle: saline 103 % of control | endpoint: median survival time, dose: 6.0 mg/kg/injection, schedule: Q04DX003 (ip), vehicle: saline 115 % of control | endpoint: median survival time, dose: 8.0 mg/kg/injection, schedule: Q01DX009 (ip), vehicle: saline 104 % of control | endpoint: median survival time, dose: 8.4 mg/kg/injection, schedule: Q04DX003 (ip), vehicle: water 103 % of control | endpoint: median survival time, dose: 14.0 mg/kg/injection, schedule: Q04DX003 (ip), vehicle: water 78 % of control | endpoint: median survival time, dose: 16.0 mg/kg/injection, schedule: Q01DX001 (ip), vehicle: water 76 % of control | endpoint: median survival time, dose: 20.0 mg/kg/injection, schedule: Q01DX001 (ip), vehicle: saline 71 % of control | endpoint: median survival time, dose: 26.7 mg/kg/injection, schedule: Q01DX001 (ip), vehicle: saline 99 % of control | endpoint: median survival time, dose: 32.0 mg/kg/injection, schedule: Q01DX001 (iv), vehicle: water 65 % of control | endpoint: median survival time, dose: 40.0 mg/kg/injection, schedule: Q01DX001 (ip), vehicle: saline 53 % of control

Cc1ccc2[nH]c(=O)oc(=O)c2c1
inactive: endpoint: mean survival time, dose: 100.0 mg/kg/injection, schedule: Q04DX003 (ip), vehicle: saline with Tween-80 104 % of control | endpoint: mean survival time, dose: 200.0 mg/kg/injection, schedule: Q04DX003 (ip), vehicle: saline with Tween-80 98 % of control | endpoint: mean survival time, dose: 400.0 mg/kg/injection, schedule: Q04DX003 (ip), vehicle: saline with Tween-80 106 % of control

CC(=O)Nc1ccsc1
inactive: endpoint: mean survival time, dose: 100.0 mg/kg/injection, schedule: Q01DX001 (ip), vehicle: saline 96 % of control | endpoint: mean survival time, dose: 200.0 mg/kg/injection, schedule: Q01DX001 (ip), vehicle: saline 95 % of control | endpoint: mean survival time, dose: 400.0 mg/kg/injection, schedule: Q01DX001 (ip), vehicle: saline 95 % of control
